Test results: article PMC12040169 (PLOS Biology, 2025)

Assay: in vitro
Settings: human, hela cells, % viability

Compound	viability at 28.5 h, 10 µM
O=C(O)COCC(=O)NC12CC3CC(CC(C3)C1)C2 [CBK287065]	97.9%
Cc1n[nH]c(NC(=O)/C=C/C(=O)O)c1-c1ccc(F)cc1 [CBK287068]	96.7%
Cc1oc2ccc(NS(=O)(=O)c3ccccc3)cc2c1C(=O)O [CBK287071]	95.3%
O=C(O)CC(C(=O)N1CCOCC1)N1CCCCC1 (centres unmarked) [CBK287074]	98.7%
O=C(O)c1ccc2[nH]cc(CN3CCOCC3)c2c1 [CBK287081]	89.9%
O=C(O)c1ccc(NC2=NS(=O)(=O)c3ccccc32)cc1 [CBK287084]	84.4%
O=C(O)CC1SC(=O)N(c2ccccc2)C1=O (centres unmarked) [CBK287085]	78.8%
O=C(O)c1ccc(Cl)c2c1C1C=CCC1C(c1ccccn1)N2 (centres unmarked) [CBK287087]	86.9%
COc1ccccc1C1CC(c2ccccc2)=NN1C(=O)CCC(=O)O (centres unmarked) [CBK287088]	83.4%
CCn1c(SCC(=O)O)nnc1-c1c[nH]c2ccccc12 [CBK287089]	85.9%
CC1(c2ccccc2)CC(=O)N(CCC(=O)O)C1=O (centres unmarked) [CBK287091]	83.3%
CN1CCN(C(=O)C2CCCCC2C(=O)O)CC1 (centres unmarked) [CBK287092]	86.4%
CC(=O)c1ccc2c(c1)[C@@H]1C=CC[C@@H]1[C@H](C(=O)O)N2 [CBK287093]	91.6%
CN(C1=NS(=O)(=O)c2ccccc21)c1ccccc1C(=O)O [CBK287094]	90%
Cc1cccc(N2C(=O)SC(N(CC(=O)O)c3cccc(C)c3)C2=O)c1 (centres unmarked) [CBK287095]	87.6%
O=C(O)CN(c1ccc(F)cc1)S(=O)(=O)c1ccc2c(c1)OCCO2 [CBK287096]	84.1%
O=C(O)Cn1nnnc1CN1CCc2ccccc2C1 [CBK287097]	94.3%
CCC(C)(Sc1nc(C)ccc1C#N)C(=O)O (centres unmarked) [CBK287098]	88.7%
O=C(O)c1cc(NCc2ccccc2)ccc1N1CCOCC1 [CBK287099]	101%
COc1cc(C(=O)O)ccc1OCC(=O)Nc1ccc(F)cc1 [CBK287101]	95.5%
CN1C(C)(C)CC(NC(=O)c2[nH]cnc2C(=O)O)CC1(C)C [CBK287102]	87.5%
O=C(O)CCC(=O)NC1CCN(Cc2ccccc2)CC1 [CBK287103]	86.5%
CC(NC(=O)CCC(=O)O)C12CC3CC(CC(C3)C1)C2 (centres unmarked) [CBK287105]	97.9%
COc1cccc(NC(=O)C2C(C(=O)O)C3C=CC2C32CC2)c1 (centres unmarked) [CBK287106]	81.6%

Compound	viability at 28.5 h, 10 µM
CC(C)(C)OC(=O)N1CCN(CCn2cc(C(=O)O)nn2)CC1 [CBK287112]	86.8%
O=C(Nc1ccccc1C(=O)O)c1ccccc1Cl [CBK287114]	88%
CC(=O)c1ccc(OCCn2c(SCC(=O)O)nc3ccccc32)cc1 [CBK287115]	88.8%
Cc1nn2c(c1-c1ccccc1)NC(=O)CC2C(=O)O (centres unmarked) [CBK287118]	95.3%
CCOc1ccc(C(N)CC(=O)O)c2ccccc12 (centres unmarked) [CBK287120]	89.1%
COc1ccc(C(CC(=O)O)c2ccc3c(c2)OCCO3)cc1OC (centres unmarked) [CBK287121]	87%
O=C(Nc1cccc(Cl)c1)c1cccc(NC(=O)c2ccccc2C(=O)O)c1 [CBK287122]	81.8%
CC(C)(C)NC(=O)c1cccc(N2C(=O)c3ccc(C(=O)O)cc3C2=O)c1 [CBK287123]	86.8%
Cc1c(C(=O)O)ccc2c1N[C@@H](c1ccc(OCC#N)cc1)C1CC=CC21 (some centres unmarked) [CBK287124]	89.2%
Cc1ccc(S(=O)(=O)N(CC(=O)O)c2ccc(Br)cc2)cc1 [CBK287125]	95.3%
Cc1ccc(Oc2ccc3c(c2)C(=O)N(CC(=O)O)C3=O)cc1 [CBK287126]	91.4%
CC(=O)C(CC(=O)O)C1=C(O)CC(C)(C)CC1=O (centres unmarked) [CBK287127]	91.5%
COc1ccc(-c2nn(CC(=O)O)cc2/C=C/c2cc(C(F)(F)F)nc(=O)[nH]2)cc1 [CBK287128]	86.8%
Cc1nn2c(=O)cc(C(=O)O)[nH]c2c1-c1ccccc1 [CBK287129]	88.2%
CCN1C(=O)N(CC)C2C1NC(=O)N2CCCC(=O)O (centres unmarked) [CBK287131]	89.3%
O=C(O)CC(Cc1ccccc1)(C(=O)O)c1ccccc1 (centres unmarked) [CBK287133]	77.8%
O=C(O)C1(c2ccc(Br)cc2)CCCC1 [CBK287134]	87.3%
CCC(Sc1nc(O)cc(-c2ccccc2)n1)C(=O)O (centres unmarked) [CBK287135]	87.8%
COc1cccc(NC(=O)c2ccc(NC(=O)CCCC(=O)O)cc2)c1 [CBK287137]	83.7%
O=C(O)c1cccc2c1C(=O)C(CC1CCCO1)N2 (centres unmarked) [CBK287140]	90.6%
CC(C)(CN1CCCC1)NC(=O)c1cc(Cl)c(Cl)cc1C(=O)O [CBK287141]	89%
CCOc1ccccc1N(CC(=O)O)S(=O)(=O)c1ccc(Cl)cc1 [CBK287144]	110%
Cc1ccc(CNC(Cc2c[nH]c3ccccc23)C(=O)O)cc1 (centres unmarked) [CBK287145]	106%
COc1ccc(C(=O)NCCCCCC(=O)O)cc1 [CBK287146]	109%

Compound	viability at 28.5 h, 10 µM
O=C(O)C1C2CC(c3ccccc3)C(C2)C1C(=O)O (centres unmarked) [CBK287147]	95.7%
O=C(O)c1ccc(-c2n[nH]c(=O)c3ccccc23)cc1 [CBK287148]	108%
CC(=O)Nc1ccc(N2CC(C(=O)O)CC2=O)cc1 (centres unmarked) [CBK287149]	87.1%
CC(Oc1ccccc1)C(=O)Nc1ccc(C(=O)O)cc1 (centres unmarked) [CBK287154]	102%
Cc1ccc(C2c3c(oc4ccccc4c3=O)C(=O)N2CCCCCC(=O)O)cc1 (centres unmarked) [CBK287158]	94.1%
CC1CCCN(c2nc3cc(C(=O)O)sc3[nH]2)C1 (centres unmarked) [CBK287159]	88.8%
O=C(O)c1ccc(-n2nnnc2SCc2ccccc2)cc1 [CBK287161]	93.6%
Cc1ccc(N2C(=O)c3ccc(C(=O)c4ccc(C(=O)O)cc4)cc3C2=O)cc1 [CBK287164]	93.5%
O=C(O)CCC(=O)NCCc1ccc(Cl)cc1 [CBK287165]	92.7%
Cc1cc(C)cc(Nc2c(-c3ccc(C(=O)O)cc3)nc3cnccn23)c1 [CBK287166]	73.3%
COc1ccc(C2=NNC(c3ccc(C(=O)O)cc3)C2)cc1 (centres unmarked) [CBK287167]	78%
O=C(O)c1ccc(NC2CCS(=O)(=O)C2)cc1 (centres unmarked) [CBK287168]	82.3%
CC1=CCC2C(=O)N(C(CC(C)C)C(=O)O)C(=O)C2C1 (centres unmarked) [CBK287172]	94.6%
CCC(Sc1nc2ccc(F)cc2[nH]1)C(=O)O (centres unmarked) [CBK287174]	106%
O=C(O)CC1C(=O)NCCN1CCCc1ccccc1 (centres unmarked) [CBK287176]	90.2%
CCC(C)(NC=O)C(=O)Nc1ccccc1C(=O)O (centres unmarked) [CBK287177]	97%
O=C(O)c1ccccc1C(=O)N1CCN(c2ccc([N+](=O)[O-])cc2)CC1 [CBK287181]	87.7%
O=C(O)CC(C(=O)Nc1ccccc1)N1CCOCC1 (centres unmarked) [CBK287182]	94.8%
O=C(O)C1CCC(N2C(=O)C3C4CCC(C4)C3C2=O)CC1 (centres unmarked) [CBK287183]	82.2%
Cc1cccc(C)c1OCC(=O)NC(C)C(=O)O (centres unmarked) [CBK287185]	86.8%
Nc1cccc(Oc2ccc3c(c2)C(=O)N(CCC(=O)O)C3=O)c1 [CBK287186]	94.1%
N#Cc1ccc(CSc2ncccc2C(=O)O)cc1 [CBK287187]	85.9%
O=C(O)CCCCN1C(=O)c2ccccc2S1(=O)=O [CBK287189]	84.8%
O=C(/C=C/c1ccccc1)Nc1cccc(C(=O)O)c1 [CBK287193]	94%

Compound	viability at 28.5 h, 10 µM
CC1CCN(S(=O)(=O)c2ccc(C(=O)O)cc2)CC1 [CBK287195]	82.7%
CSc1ccc(C(NC(=O)OC(C)(C)C)C(=O)O)cc1 (centres unmarked) [CBK287196]	80.4%
O=C(O)C1CCN(Cc2cnnn2-c2ccccc2F)CC1 [CBK287197]	82.1%
O=C1CC(c2ccc(F)cc2)Cc2[nH]c(=O)c(C(=O)O)cc21 (centres unmarked) [CBK287200]	88.8%
O=C(O)c1ccc(S(=O)(=O)N2CCOCC2)cc1 [CBK287201]	82.2%
O=C(O)C1CCCCC1C(=O)NCCCCc1ccccc1 (centres unmarked) [CBK287205]	83.2%
O=C(O)C1CCN(C2CC(=O)N(Cc3ccccc3)C2=O)CC1 (centres unmarked) [CBK287206]	84.8%
Cc1cc(C)n(C(CC(=O)c2ccccc2)C(=O)O)n1 (centres unmarked) [CBK287209]	90.8%
CN1C(=O)CC(Sc2ccccc2C(=O)O)C1=O (centres unmarked) [CBK287213]	89.5%
O=C(O)c1ccc(CNCCc2ccccc2)cc1 [CBK287215]	101%
Nc1cccc2c1C(=O)N(c1ccccc1C(=O)O)C2=O [CBK287220]	94%
O=C(O)c1ccc(CNCCN2CCOCC2)cc1 [CBK287223]	101%
COc1ccc(C(=O)CCN(C)CC(=O)O)cc1 [CBK287227]	89.7%
O=C(O)c1ccc(-n2nnnc2SCc2ccc(F)cc2)cc1 [CBK287229]	95.8%
CCOc1ccc(N(Cc2ccc(C(=O)O)cc2)S(C)(=O)=O)cc1 [CBK287231]	104%
CCN(c1ccccc1C(=O)O)S(=O)(=O)/C=C/c1ccccc1 [CBK287236]	96.7%
Cc1c(NCc2ccc3c(c2)n(C)c(=O)n3C)cccc1C(=O)O [CBK287237]	98.6%
O=C(CCc1c[nH]c2ccccc12)Nc1ccccc1C(=O)O [CBK287242]	108%
CN(C)S(=O)(=O)N(C)c1ccc(C(=O)O)cc1 [CBK287244]	105%
O=C(O)CCNC1CC(=O)N(Cc2ccccc2)C1=O (centres unmarked) [CBK287246]	99%
O=C(COc1cc(C(=O)O)nc2ccccc12)NCc1ccc(Cl)cc1 [CBK287247]	92%
O=C(O)C1C2C=CC3(CN(C4CCCCC4)C(=O)C13)O2 (centres unmarked) [CBK287248]	84.8%

Same assay, conditions: human, hela cells, % viability, bulk resorufin, single well

Compound	viability at 28.5 h, 10 µM
O=C(O)Cn1cc(C(=O)c2cccs2)c2ccccc21 [CBK287110]	91.9%
